Test results from ChEMBL document CHEMBL5154870, “Discovery of novel glutaminase 1 allosteric inhibitor with 4-piperidinamine linker and aromatic heterocycles” (Eur J Med Chem, 2022).

Columns and labels:
[1] = target: T1, Glutaminase kidney isoform, mitochondrial (Homo sapiens, UniProt O94925); experiment: Allosteric inhibition of human GLS1 using glutamine as substrate incubated for 60 mins by NADH/NADPH-based absorbance analysis
T1 sequence (O94925 whole entry): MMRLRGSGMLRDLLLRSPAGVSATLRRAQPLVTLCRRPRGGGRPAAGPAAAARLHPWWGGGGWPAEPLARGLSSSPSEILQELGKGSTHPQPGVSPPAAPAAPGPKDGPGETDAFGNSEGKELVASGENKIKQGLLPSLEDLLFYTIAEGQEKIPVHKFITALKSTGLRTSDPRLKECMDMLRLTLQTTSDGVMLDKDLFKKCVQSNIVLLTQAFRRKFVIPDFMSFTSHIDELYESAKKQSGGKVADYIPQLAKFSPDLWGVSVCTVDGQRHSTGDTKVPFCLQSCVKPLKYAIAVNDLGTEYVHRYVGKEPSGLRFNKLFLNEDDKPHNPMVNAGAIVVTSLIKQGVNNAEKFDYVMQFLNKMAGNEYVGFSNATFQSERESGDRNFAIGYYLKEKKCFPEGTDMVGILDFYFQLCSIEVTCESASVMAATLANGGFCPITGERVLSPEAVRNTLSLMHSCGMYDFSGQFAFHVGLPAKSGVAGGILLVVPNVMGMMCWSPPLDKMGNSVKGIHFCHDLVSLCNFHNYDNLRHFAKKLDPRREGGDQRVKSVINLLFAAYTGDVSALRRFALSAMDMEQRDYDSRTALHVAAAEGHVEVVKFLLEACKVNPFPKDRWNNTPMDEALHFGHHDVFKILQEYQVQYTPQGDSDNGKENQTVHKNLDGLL

HCT-116 = experiment: Antiproliferative activity against human HCT-116 cells overexpressing GLS1 assessed as inhibition of cell proliferation measured after 72 hrs by MTT assay; format: functional, cell-based; conditions: HCT-116, 72 h
MDA-MB-436 = experiment: Antiproliferative activity against human MDA-MB-436 cells overexpressing GLS1 assessed as inhibition of cell proliferation measured after 72 hrs by MTT assay; format: functional, cell-based; conditions: MDA-MB-436, 72 h
[2] = Metabolic stability in human liver microsomes assessed as intrinsic clearance at 10 uM by LC-MS/MS analysis; format: ADME, Microsome; conditions: read-out: CLH
[3] = Metabolic stability in human liver microsomes assessed as half life at 10 uM by LC-MS/MS analysis; format: ADME, Microsome; conditions: liver microsomes
[4] = Metabolic stability in human plasma assessed as parent compound remaining at 1 uM measured after 2 hrs by LC-MS/MS analysis; format: ADME, cell-free; conditions: read-out: Stability
[5] = Metabolic stability in human liver microsomes assessed as parent compound remaining at 10 uM measured after 30 mins by LC-MS/MS analysis; format: ADME, Microsome; conditions: liver microsomes, read-out: Stability
[6] = Metabolic stability in human liver microsomes assessed as parent compound remaining at 10 uM measured after 60 mins by LC-MS/MS analysis; format: ADME, Microsome; conditions: liver microsomes, read-out: Stability

IC50 [1] [nM]	IC50 (HCT-116) [nM]	IC50 (MDA-MB-436) [nM]	microsomal CLint at 10 µM [2] [µL/min/mg]	half-life at 10 µM [3] [h]	remaining at 2 h, 1 µM [4] [%]	remaining at 0.5 h, 10 µM [5] [%]	remaining at 1 h, 10 µM [6] [%]	SMILES
57	560	760	–	–	–	–	–	COc1ccc(Cn2cc(CCC(=O)Nc3nnc(N4CC[C@@H](Nc5nnc(NC(=O)Cc6ccccc6)s5)C4)s3)nn2)cc1
> 1000	> 20000	> 20000	–	–	–	–	–	COc1ccc(Cn2cc(CCC(=O)Nc3ccc(N4CC[C@H](Nc5nnc(NC(=O)Cc6ccccn6)s5)C4)nn3)nn2)cc1
> 10000	–	–	–	–	–	–	–	COc1ccc(Cn2cc(CCC(=O)Nc3ccc(N4CCC(Nc5nnc(N)s5)CC4)nn3)nn2)cc1OC
12.4	350	420	–	–	–	–	–	Cc1ccc(Cn2cc(CCC(=O)Nc3nnc(N4CCC(Nc5nnc(NC(=O)Cc6ccccc6)s5)CC4)s3)nn2)cc1
16.6	350	530	–	–	–	–	–	Cc1ccc(Cn2cc(CCC(=O)Nc3nnc(N4CC[C@@H](Nc5nnc(NC(=O)Cc6ccccc6)s5)C4)s3)nn2)cc1
18.3	530	840	–	–	–	–	–	O=C(CCc1cn(Cc2ccc(C(F)(F)F)cc2)nn1)Nc1ccc(N2CCC(Nc3nnc(NC(=O)Cc4ccccn4)s3)CC2)nn1
8.9	490	840	–	–	–	–	–	Cc1ccc(Cn2cc(CCC(=O)Nc3ccc(N4CC[C@@H](Nc5nnc(NC(=O)Cc6ccccn6)s5)C4)nn3)nn2)cc1
227	8270	> 20000	–	–	–	–	–	O=C(Cc1ccccc1)Nc1nnc(N[C@H]2CCN(c3nnc(NC(=O)CCc4cn(Cc5ccc(C(F)(F)F)cc5)nn4)s3)C2)s1
67.8	6090	6980	–	–	–	–	–	Cc1cccc(C)c1Cn1cc(CCC(=O)Nc2ccc(N3CCC(Nc4nnc(NC(=O)Cc5ccccn5)s4)CC3)nn2)nn1
17.9	850	2030	–	–	–	–	–	O=C(Cc1ccccc1)Nc1nnc(N[C@@H]2CCN(c3nnc(NC(=O)CCc4cn(-c5ccc(C(F)(F)F)cc5)nn4)s3)C2)s1
69.1	3960	4580	–	–	–	–	–	Cc1cccc(C)c1Cn1cc(CCC(=O)Nc2nnc(N3CCC(Nc4nnc(NC(=O)Cc5ccccc5)s4)CC3)s2)nn1
10.3	510	730	–	–	–	–	–	O=C(CCc1cn(Cc2ccc(C(F)(F)F)cc2)nn1)Nc1ccc(N2CC[C@@H](Nc3nnc(NC(=O)Cc4ccccn4)s3)C2)nn1
14.7	410	620	–	–	–	–	–	COc1ccc(Cn2cc(CCC(=O)Nc3nnc(N4CCC(Nc5nnc(NC(=O)Cc6ccccc6)s5)CC4)s3)nn2)cc1
41.8	3640	4290	–	–	–	–	–	Cc1cccc(C)c1Cn1cc(CCC(=O)Nc2ccc(N3CC[C@@H](Nc4nnc(NC(=O)Cc5ccccn5)s4)C3)nn2)nn1
–	–	–	40.2	0.655	72	56	35	Cc1ccc(Cn2cc(CCC(=O)Nc3ccc(CCCCc4nnc(NC(=O)Cc5ccccn5)s4)nn3)nn2)cc1
> 10000	–	–	–	–	–	–	–	Nc1nnc(NC2CCN(c3ccc(NC(=O)CCc4cn(Cc5ccc(OC(F)(F)F)cc5)nn4)nn3)CC2)s1
> 10000	–	–	–	–	–	–	–	COc1ccc(Cn2cc(CCC(=O)Nc3ccc(N4CCC(Nc5nnc(N)s5)CC4)nn3)nn2)cc1
312	12500	> 20000	–	–	–	–	–	Cc1ccc(Cn2cc(CCC(=O)Nc3nnc(N4CC[C@H](Nc5nnc(NC(=O)Cc6ccccc6)s5)C4)s3)nn2)cc1
381	10100	> 20000	–	–	–	–	–	O=C(Cc1ccccc1)Nc1nnc(N[C@H]2CCN(c3nnc(NC(=O)CCc4cn(Cc5ccc(OC(F)(F)F)cc5)nn4)s3)C2)s1
8.66	130	510	23.1	1.27	79	–	–	O=C(Cc1ccccc1)Nc1nnc(NC2CCN(c3nnc(NC(=O)CCc4cn(Cc5ccc(C(F)(F)F)cc5)nn4)s3)CC2)s1
35.7	3880	4480	–	–	–	–	–	COc1ccc(Cn2cc(CCC(=O)Nc3ccc(N4CC[C@@H](Nc5nnc(NC(=O)Cc6ccccn6)s5)C4)nn3)nn2)cc1OC

IC50 [1] [nM]	IC50 (HCT-116) [nM]	IC50 (MDA-MB-436) [nM]	microsomal CLint at 10 µM [2] [µL/min/mg]	half-life at 10 µM [3] [h]	remaining at 2 h, 1 µM [4] [%]	remaining at 0.5 h, 10 µM [5] [%]	remaining at 1 h, 10 µM [6] [%]	SMILES
12.4	290	630	–	–	–	–	–	O=C(Cc1ccccc1)Nc1nnc(N[C@@H]2CCN(c3nnc(NC(=O)CCc4cn(Cc5ccc(C(F)(F)F)cc5)nn4)s3)C2)s1
> 10000	–	–	–	–	–	–	–	Cc1cccc(C)c1Cn1cc(CCC(=O)Nc2ccc(N3CCC(Nc4nnc(N)s4)CC3)nn2)nn1
544	14200	> 20000	–	–	–	–	–	COc1ccc(Cn2cc(CCC(=O)Nc3nnc(N4CC[C@H](Nc5nnc(NC(=O)Cc6ccccc6)s5)C4)s3)nn2)cc1
24.9	1450	2040	–	–	–	–	–	COc1ccc(Cn2cc(CCC(=O)Nc3ccc(N4CCC(Nc5nnc(NC(=O)Cc6ccccn6)s5)CC4)nn3)nn2)cc1
> 1000	> 20000	> 20000	–	–	–	–	–	Cc1ccc(Cn2cc(CCC(=O)Nc3ccc(N4CC[C@H](Nc5nnc(NC(=O)Cc6ccccn6)s5)C4)nn3)nn2)cc1
20	570	470	–	–	–	–	–	Cc1ccc(Cn2cc(CCC(=O)Nc3ccc(N4CCC(Nc5nnc(NC(=O)Cc6ccccn6)s5)CC4)nn3)nn2)cc1
60.7	5750	6720	–	–	–	–	–	COc1ccc(Cn2cc(CCC(=O)Nc3ccc(N4CCC(Nc5nnc(NC(=O)Cc6ccccn6)s5)CC4)nn3)nn2)cc1OC
17.4	120	530	25.2	1.15	76	–	–	O=C(Cc1ccccc1)Nc1nnc(NC2CCN(c3nnc(NC(=O)c4ccn(Cc5ccc(C(F)(F)F)cc5)n4)s3)CC2)s1
13.6	700	880	–	–	–	–	–	O=C(CCc1cn(Cc2ccc(OC(F)(F)F)cc2)nn1)Nc1ccc(N2CC[C@@H](Nc3nnc(NC(=O)Cc4ccccn4)s3)C2)nn1
> 1000	> 20000	> 20000	–	–	–	–	–	O=C(CCc1cn(Cc2ccc(C(F)(F)F)cc2)nn1)Nc1ccc(N2CC[C@H](Nc3nnc(NC(=O)Cc4ccccn4)s3)C2)nn1
> 10000	–	–	–	–	–	–	–	Nc1nnc(NC2CCN(c3ccc(NC(=O)CCc4cn(Cc5ccc(C(F)(F)F)cc5)nn4)nn3)CC2)s1
17.2	1240	1020	–	–	–	–	–	O=C(CCc1cn(Cc2ccc(OC(F)(F)F)cc2)nn1)Nc1ccc(N2CCC(Nc3nnc(NC(=O)Cc4ccccn4)s3)CC2)nn1
> 1000	> 20000	> 20000	–	–	–	–	–	O=C(CCc1cn(Cc2ccc(OC(F)(F)F)cc2)nn1)Nc1ccc(N2CC[C@H](Nc3nnc(NC(=O)Cc4ccccn4)s3)C2)nn1
17.1	190	400	–	–	–	–	–	O=C(Cc1ccccc1)Nc1nnc(NC2CCN(c3nnc(NC(=O)CCc4cn(Cc5ccc(OC(F)(F)F)cc5)nn4)s3)CC2)s1
4.85	350	840	15.1	1.91	91	–	–	CO[C@@H](C(=O)Nc1nnc(NC2CCN(c3nnc(NC(=O)CCc4cn(CC5=CC=C(C(F)(F)F)CC5)nn4)s3)CC2)s1)c1ccccc1
216	15500	> 20000	–	–	–	–	–	O=C(Cc1ccccc1)Nc1nnc(N[C@H]2CCN(c3nnc(NC(=O)CCc4cn(-c5ccc(C(F)(F)F)cc5)nn4)s3)C2)s1
16.7	580	1650	–	–	–	–	–	O=C(Cc1ccccc1)Nc1nnc(N[C@@H]2CCN(c3nnc(NC(=O)CCc4cn(Cc5ccc(OC(F)(F)F)cc5)nn4)s3)C2)s1
11.3	680	1540	–	–	–	–	–	COc1ccc(Cn2cc(CCC(=O)Nc3ccc(N4CC[C@@H](Nc5nnc(NC(=O)Cc6ccccn6)s5)C4)nn3)nn2)cc1
77.5	3250	4210	–	–	–	–	–	COc1ccc(Cn2cc(CCC(=O)Nc3nnc(N4CCC(Nc5nnc(NC(=O)Cc6ccccc6)s5)CC4)s3)nn2)cc1OC
23.7	300	1090	9.21	3.14	95	–	–	CO[C@H](C(=O)Nc1nnc(NC2CCN(c3nnc(NC(=O)CCc4cn(Cc5ccc(C(F)(F)F)cc5)nn4)s3)CC2)s1)c1ccccc1
> 10000	–	–	–	–	–	–	–	Cc1ccc(Cn2cc(CCC(=O)Nc3ccc(N4CCC(Nc5nnc(N)s5)CC4)nn3)nn2)cc1
